The IC50 is the concentration that gives 50% inhibition.

IC50 data for 28 compounds are collected here from patent US11827628B2, “Compositions and methods for inhibition of the JAK pathway” (Rigel Pharmaceuticals, Inc., priority 2005, dated 2023).

Assay [1] relates to IL-4 stimulated expression of CD23 in human Ramos B cells (JAK-1 and JAK-3). As to the kind of experiment: Assay for Ramos B-Cell Line Stimulated with IL-4 (CD23 upregulation, FACS). The class given is cell-based. Particulars: Ramos B-cell line stimulated with IL-4; CD23 expression by FACS; read-out: IC50, Example 41. In outline:
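Compound effect on IL-4-driven JAK1/JAK3 signalling is gauged as CD23 surface expression, measured by FACS after 20-24 h of stimulation with IL-4 at 50 units/mL final. A 1 h compound pre-treatment at 37 °C precedes stimulation, and IC50 is derived from the results.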
(In general: In flow cytometry, cells or beads pass a laser one at a time.)

The test system of assay [2] is up-regulation of ICAM-1 (CD54) by IFNγ in U937 human monocytic cells. As to the kind of experiment: U937 IFNγ ICAM1 FACS Assay. The class given is cell-based. Particulars: U937 cells stimulated with IFNγ; ICAM-1 expression by FACS; read-out: IC50, Example 44. The method in brief: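 Readout was the geometric-mean APC anti-ICAM-1 signal by FACS on live U937 monocytic cells, with % live cells also recorded. Cells were exposed to compounds (8 points, 3-fold dilutions, duplicates) for 30 min at 37 °C before 18–24 h of IFNγ stimulation. EC50 values were computed from the dose curve.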

For the compound `Cc1cc(Nc2nc(Nc3ccc(S(N)(=O)=O)cc3)ncc2F)ccc1OC(C)C#N` (racemic) [Compound I-60, Racemic N2-(4-Aminosulfonyl)phenyl-N4-[4-(1-cyano)ethoxy-3-methyl]phenyl-5-fluoro-2,4-pyrimidinediamine], the IC50 in assay [1] stood at 103 nM; in assay [2] it was 848 nM. On to `Cc1cc(Nc2nc(Nc3cccc(S(N)(=O)=O)c3)ncc2F)ccc1OC(C)C#N` (racemic) [Compound I-61, Racemic N2-(3-Aminosulfonyl)phenyl-N4-[4-(1-cyano)ethoxy-3-methyl]phenyl-5-fluoro-2,4-pyrimidinediamine], for which the IC50 in assay [1] turned out to be 45.9 nM; in assay [2], 427 nM.

Regarding `Cc1cc(Nc2nc(Nc3ccc(C)c(S(N)(=O)=O)c3)ncc2F)ccc1OC(C)C#N` (racemic) [Compound I-62, Racemic N2-(3-Aminosulfonyl-4-methyl)phenyl-N4-[4-(1-cyano)ethoxy-3-methyl]phenyl-5-fluoro-2,4-pyrimidinediamine], the IC50 in assay [1] turned out to be 101 nM; in assay [2] it was 735 nM. Turning to `Cc1cc(Nc2nc(Nc3ccc(S(N)(=O)=O)cc3)ncc2F)cc(C)c1OC(C)C#N` (racemic) [Compound I-63, Racemic N2-(4-Aminosulfonyl)phenyl-N4-[4-(1-cyano)ethoxy-3,5-dimethyl]phenyl-5-fluoro-2,4-pyrimidinediamine], the IC50 in assay [1] worked out at 169 nM; in assay [2], 691 nM. The matching figures for `COc1cc(Nc2ncc(F)c(Nc3ccc(OC(C)C#N)c(C)c3)n2)ccc1S(N)(=O)=O` (racemic) [Compound I-64, Racemic N2-(4-Aminosulfonyl-3-methoxy)phenyl-N4-[4-(1-cyano)ethoxy-3-methyl]phenyl-5-fluoro-2,4-pyrimidinediamine]: 113 nM and 1150 nM. For `CC(C#N)Oc1ccc(Nc2nc(Nc3cccc(S(N)(=O)=O)c3)ncc2F)cc1` (racemic) [Compound I-65, Racemic N2-(3-Aminosulfonyl)phenyl-N4-[4-(1-cyano)ethoxy]phenyl-5-fluoro-2,4-pyrimidinediamine], the IC50 is 96.5 nM in assay [1] and 316 nM in assay [2]. For `CC(C#N)Oc1ccc(Nc2nc(Nc3ccc(S(N)(=O)=O)cc3)ncc2F)cc1` (racemic) [Compound I-66, Racemic N2-(4-Aminosulfonyl)phenyl-N4-[4-(1-cyano)ethoxy]phenyl-5-fluoro-2,4-pyrimidinediamine], in that order: 103 nM and 689 nM. In the case of `Cc1ccc(Nc2ncc(F)c(Nc3ccc(OC(C)C#N)cc3)n2)cc1S(N)(=O)=O` (racemic) [Compound I-67, Racemic N2-(3-Aminosulfonyl-4-methyl)phenyl-N4-[4-(1-cyano)ethoxy]phenyl-5-fluoro-2,4-pyrimidinediamine], the IC50 amounted to 33.2 nM in assay [1] and 239 nM in assay [2]. The matching figures for `CC(C#N)Oc1ccc(Nc2nc(Nc3ccc(F)c(S(N)(=O)=O)c3)ncc2F)cc1` (racemic) [Compound I-68, Racemic N2-(3-Aminosulfonyl-4-fluoro)phenyl-N4-[4-(1-cyano)ethoxy]phenyl-5-fluoro-2,4-pyrimidinediamine]: 187 nM and 913 nM. With `Cc1cc(Nc2nc(Nc3ccc(F)c(S(N)(=O)=O)c3)ncc2F)ccc1OC(C)C#N` (racemic) [Compound I-69, Racemic N2-(3-Aminosulfonyl-4-fluoro)phenyl-N4-[4-(1-cyano)ethoxy-3-methyl]phenyl-5-fluoro-2,4-pyrimidinediamine], the half-inhibitory concentration (IC50) in assay [1] came to 118 nM. As for `COc1cc(Nc2ncc(F)c(Nc3ccc(OC(C)C#N)cc3)n2)ccc1S(N)(=O)=O` (racemic) [Compound I-70, Racemic N2-(4-Aminosulfonyl-3-methoxy)phenyl-N4-[4-(1-cyano)ethoxy]phenyl-5-fluoro-2,4-pyrimidinediamine], the figures for the IC50 in assay [1] and in assay [2] were 61.4 nM and 384 nM, respectively. With `Cc1cc(Nc2nc(Nc3cccc(S(N)(=O)=O)c3)ncc2F)cc(C)c1OC(C)C#N` (racemic) [Compound I-71, Racemic N2-(3-Aminosulfonyl)phenyl-N4-[4-(1-cyano)ethoxy-3,5-dimethyl]phenyl-5-fluoro-2,4-pyrimidinediamine], the IC50 in assay [1] worked out at 61.8 nM; in assay [2] it was 328 nM.

In the case of `Cc1ccc(Nc2ncc(F)c(Nc3cc(C)c(OC(C)C#N)c(C)c3)n2)cc1S(N)(=O)=O` (racemic) [Compound I-72, Racemic N2-(3-Aminosulfonyl-4-methyl)phenyl-N4-[4-(1-cyano)ethoxy-3,5-dimethyl]phenyl-5-fluoro-2,4-pyrimidinediamine], the IC50 in assay [1] amounted to 52.4 nM; in assay [2] it was 574 nM. Regarding `N#CCOc1cccc(Nc2nc(Nc3cccc(S(N)(=O)=O)c3)ncc2F)c1` [Compound I-4, N2-(3-Aminosulfonyl)phenyl-N4-(3-cyanomethoxy)phenyl-5-fluoro-2,4-pyrimidinediamine], the IC50 in assay [1] was 49.1 nM. In the case of `Cc1cc(Nc2nc(Nc3ccc(F)c(S(N)(=O)=O)c3)ncc2F)ccc1OCC#N` [Compound I-34, N2-(3-Aminosulfonyl-4-fluoro)phenyl-N4-(4-cyanomethoxy-3-methyl)phenyl-5-fluoro-2,4-pyrimidinediamine], the IC50 in assay [1] was determined as 62.3 nM; in assay [2], 1050 nM.

As to `Cc1cc(Nc2nc(Nc3ccc(F)c(S(N)(=O)=O)c3)ncc2F)cc(C)c1OCC#N` [Compound I-35, N2-(3-Aminosulfonyl-4-fluoro)phenyl-N4-(4-cyanomethoxy-3,5-dimethyl)phenyl-5-fluoro-2,4-pyrimidinediamine], the IC50 in assay [1] worked out at 47 nM; in assay [2], 1820 nM. On to `Cc1ccc(Nc2ncc(F)c(Nc3ccc(OCC#N)cc3)n2)cc1S(=O)(=O)NC(=O)C(C)C` [Compound I-37, N4-(4-Cyanomethyleneoxy)phenyl-5-fluoro-N2-(3-isobutyrylaminosulfonyl-4-methyl)phenyl-2,4-pyrimidinediamine], for which the IC50 came out at 499 nM in assay [1] and 5740 nM in assay [2].

Regarding `Cc1ccc(Nc2ncc(F)c(Nc3ccc(OCC#N)c(Cl)c3)n2)cc1S(N)(=O)=O` [Compound I-43, N2-(3-Aminosulfonyl-4-methylphenyl)-N4-(3-chloro-4-cyanomethoxypheny)-5-fluoro-2,4-pyrimidinediamine], the IC50 in assay [1] came out at 18.3 nM; in assay [2], 771 nM. Consider `Cc1cnc(Nc2ccc(S(N)(=O)=O)cc2)nc1Nc1ccc(OCC#N)cc1` [Compound I-57, N2-(4-Aminosulfonylphenyl)-N4-(4-cyanomethoxyphenyl-5)-methyl-2,4-pyrimidinediamine], for which the results for the IC50 in assay [1] and in assay [2] were 21.6 nM and 140 nM, respectively. For `Cc1ccc(Nc2ncc(F)c(Nc3ccc(OC(C)(C)C#N)cc3)n2)cc1S(N)(=O)=O` [Compound I-73, N2-(3-Aminosulfonyl-4-methyl)phenyl-N4-[4-(1-cyano-1-methyl)ethoxy]phenyl-5-fluoro-2,4-pyrimidinediamine], the figures for the IC50 in assay [1] and in assay [2] were 120 nM and 1060 nM, respectively. For `CC(C)(C#N)Oc1ccc(Nc2nc(Nc3ccc(F)c(S(N)(=O)=O)c3)ncc2F)cc1` [Compound I-74, N2-(3-Aminosulfonyl-4-fluoro)phenyl-N4-[4-(1-cyano-1-methyl)ethoxy]phenyl-5-fluoro-2,4-pyrimidinediamine], the IC50 in assay [1] worked out at 245 nM; in assay [2] it was 1760 nM.

As for `CC(C)(C#N)Oc1ccc(Nc2nc(Nc3ccc(S(N)(=O)=O)cc3)ncc2F)cc1` [Compound I-75, N2-(4-Aminosulfonyl)phenyl-N4-[4-(1-cyano-1-methyl)ethoxy]phenyl-5-fluoro-2,4-pyrimidinediamine], the IC50 in assay [1] worked out at 199 nM; in assay [2] it was 3100 nM. For the compound `CC(C)(C#N)Oc1ccc(Nc2nc(Nc3cccc(S(N)(=O)=O)c3)ncc2F)cc1` [Compound I-76, N2-(3-Aminosulfonyl)phenyl-N4-[4-(1-cyano-1-methyl)ethoxy]phenyl-5-fluoro-2,4-pyrimidinediamine], the IC50 in assay [1] came out at 101 nM; in assay [2], 1120 nM. `Cc1ccc(Nc2ncc(F)c(Nc3ccc(NC(=O)CC#N)c(Cl)c3)n2)cc1S(N)(=O)=O` [Compound I-83, N2-(3-Aminosulfonyl-4-methylphenyl)-N4-[3-chloro-4-(N-cyanoacetyl)aminophneyl]-5-fluoro-2,4-pyrimidinediamine]: the IC50 in assay [1] was found to be 158 nM.

For `Cc1ccc(Nc2ncc(F)c(Nc3cccc(OCC(N)=O)c3)n2)cc1S(N)(=O)=O` [Compound I-90, N4-(3-Aminocarbonylmethoxy)phenyl-N2-(3-aminosulfonyl-4-methyl)phenyl-5-fluoro-2,4-pyrimidinediamine], the results for the IC50 in assay [1] and in assay [2] were 401 nM and 6160 nM, respectively. The matching figures for `Cc1cc(Nc2nc(Nc3cccc(S(N)(=O)=O)c3)ncc2F)ccc1OCC(N)=O` [Compound I-92, N4-(4-Aminocarbonylmethoxy-3-methyl)phenyl-N2-(3-aminosulfonyl)phenyl-5-fluoro-2,4-pyrimidinediamine]: 166 nM and 15600 nM. On to `Cc1cc(Nc2nc(Nc3cccc(S(N)(=O)=O)c3)ncc2F)cc(C)c1OCC(N)=O` [Compound I-93, N4-(4-Aminocarbonylmethoxy-3,5-dimethyl)phenyl-N2-(3-aminosulfonyl)phenyl-5-fluoro-2,4-pyrimidinediamine], for which the IC50 was 265 nM in assay [1] and 11100 nM in assay [2].

For `Cc1ccc(Nc2ncc(F)c(Nc3ccc4c(c3)CCN4S(C)(=O)=O)n2)cc1S(N)(=O)=O` [VII-61, N2-(3-Aminosulfonyl-4-methylphenyl)-5-fluoro-N4-[4-(1-methylsulfonyl)indolin-5-yl]-2,4-pyrimidinediamine], the IC50 in assay [2] was 356 nM.
